Patent US11940444B2, “Method of stabilizing molecules without refrigeration using water soluble polymers and applications thereof in performing chemical reactions” (priority 2013, dated 2024)

Columns and labels:
Acetylcholinesterase = conditions: Michaelis rate law, literature (Sadar and Laidler 1974); cited from earlier work
AChE = AChE (Electrophorus electricus, UniProt O42275); test: Pesticide tests in Eppendorf tubes (AChE/IDA color change); type: biochemical; conditions: No. 1: malathion 10-2 mol/L, 5 μL AChE, 250 mg/mL pullulan, 30 μL, incubation 15 min
AChE, sequence (O42275 24-633): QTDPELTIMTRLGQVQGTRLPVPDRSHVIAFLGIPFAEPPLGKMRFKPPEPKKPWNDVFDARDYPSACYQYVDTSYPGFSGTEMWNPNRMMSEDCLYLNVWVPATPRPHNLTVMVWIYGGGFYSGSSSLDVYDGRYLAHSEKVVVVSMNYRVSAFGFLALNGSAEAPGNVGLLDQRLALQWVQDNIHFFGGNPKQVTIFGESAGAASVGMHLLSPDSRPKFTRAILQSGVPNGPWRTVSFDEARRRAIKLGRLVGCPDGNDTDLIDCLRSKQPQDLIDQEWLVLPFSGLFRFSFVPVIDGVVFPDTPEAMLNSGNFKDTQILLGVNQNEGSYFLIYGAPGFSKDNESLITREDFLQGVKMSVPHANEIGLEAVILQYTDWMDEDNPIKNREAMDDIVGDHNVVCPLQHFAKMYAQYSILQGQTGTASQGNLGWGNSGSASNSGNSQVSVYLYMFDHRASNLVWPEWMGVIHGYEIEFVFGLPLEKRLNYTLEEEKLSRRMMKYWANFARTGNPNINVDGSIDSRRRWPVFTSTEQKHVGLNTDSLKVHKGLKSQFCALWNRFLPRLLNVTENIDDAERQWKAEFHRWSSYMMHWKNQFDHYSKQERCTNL
Method: Three trials were conducted with fresh malathion (from Bioninterfaces Institute), which was diluted with Tris buffer to a concentration of 10-2 mol/L. A control sample was also done with 5 μL of AChE and 250 mg/mL pullulan to ensure that a color change would occur. The color change was initially green (˜2 minutes), then became a blue color which increased in intensity over time.
Information about the contents and the results of each Eppendorf tube test with pesticides is presented below. A control test was performed with 5 μL of AChE and L of dH2O with 5 μL of IDA/methanol, and the color change to blue-green was very quick.

[1] = Stability of 'all-in-one' luminescent pills at room storage condition; type: physicochemical
Method: All reagents for the luciferase assay except for adenosine triphospate (ATP) were casted in a single pullulan pill. For the pullulan pills aqueous solutions of 10 mM Luciferin, […], 27 mM Coenzyme A (CoA), 170 mM Dithiothreitol (DTT), 10 mM Ethylenediaminetetraacetic acid (EDTA), 107 mM MgCO3, and 267 mM MgSO4 were prepared. 200 μL of each solution was added to 8 mL of 12 w/v % Pullulan solution. Lastly, for each pill 47 μL of the final solution was pipetted onto a PET film and dried in a glove box under nitrogen. The casted pills were then stored at room temperature.
A buffer solution containing ATP was prepared to test the activity of the luciferase pills. For the buffer solution, 16 mL of water was added to 2 mL of 2.5 mM ATP and 2 mL of 200 mM Tricine and the pH was adjusted to pH 7.8.
Once the pills were completely dried, they were collected in dark bottles. The pills were stored at room temperature and the activity of the pills was tested over time. On the day the pills were prepared, the activity of the fresh pullulan and reagent solution was tested. 47 μL of the solution and 100 μL of the buffer were added to a 96 well-plate and the luminescence was measured using the TECAN M1000. On subsequent days, the activity of the pills was measured by placing a single pill into a well and 100 μL of ATP buffer. Each test was performed with three repeats.

Luciferase = target: T1, Luciferase (Photinus pyralis, UniProt P08659); test: ATP detection assay with luminescent pills; type: biochemical, Firefly
T1 construct: purchased Sigma-Aldrich
T1 sequence (P08659 whole entry): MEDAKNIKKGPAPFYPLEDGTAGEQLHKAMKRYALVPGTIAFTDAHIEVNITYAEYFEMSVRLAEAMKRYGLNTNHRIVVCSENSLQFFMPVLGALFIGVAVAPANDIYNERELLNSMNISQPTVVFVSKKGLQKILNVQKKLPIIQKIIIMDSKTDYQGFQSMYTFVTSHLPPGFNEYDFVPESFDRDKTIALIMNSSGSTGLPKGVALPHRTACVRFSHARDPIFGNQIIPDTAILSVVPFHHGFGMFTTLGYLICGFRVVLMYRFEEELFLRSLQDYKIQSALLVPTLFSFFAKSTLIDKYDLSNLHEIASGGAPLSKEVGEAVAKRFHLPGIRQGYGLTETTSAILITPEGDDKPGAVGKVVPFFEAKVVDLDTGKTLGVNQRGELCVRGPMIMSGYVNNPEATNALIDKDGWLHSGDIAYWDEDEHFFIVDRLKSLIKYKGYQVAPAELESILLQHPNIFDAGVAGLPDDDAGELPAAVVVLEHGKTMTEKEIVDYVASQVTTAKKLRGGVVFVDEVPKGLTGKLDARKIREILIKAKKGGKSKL
Method: The sensitivity of the luciferase assay was also investigated. To determine the detection limit of the assay, different ATP buffers were prepared with concentration ranging from 0 pM to 1000 pM and tested it with luminescent pills.

[2] = Loss of AChE activity as a function of temperature (30 min heat treatment); type: physicochemical; conditions: 30-minute heat treatment at 50° C. or above
Method: To test the ability of pullulan to retain AChE activity, 1 μL of 250 U/mL AChE and 40 μL of 120 g/L pullulan were mixed and casted into tablets. The solution was air-dried overnight at 21° C. and 48% RH; tablet formation was considered not fully completed if the tablet could not be removed from the bottom of the well; and the resulting tablets were kept at room temperature for different lengths of time before being tested. To test AChE activity, 195 μL of Tris-HCl (100 mM, pH 8) was used to dissolve the tablet and 5 μL of fresh 80 mM IDA was added. The solution was then transferred to a 96-well plate and the absorbance was measured at A605 on TECAN Infinite M200 Pro microtiter plate reader.
The loss of AChE activity, however, is attributed to thermal denaturation. To further examine the role of pullulan in stabilizing AChE, activity of AChE was monitored as a function of temperature. For this experiment, native (unencapsulated) AChE and the corresponding pullulan tablet were treated at a given temperature for 30 min, followed by activity assessment at room temperature. […] In stark contrast, AChE tablets retained ca. 90% of their initial activity even after a 30-minute incubation at 90° C.

[3] = AChE stability over time in pullulan (reaction rate with IDA, absorbance at 605 nm); type: physicochemical
Method: In order to quantify the protection that pullulan provides to AChE over time, it was attempted to create a set of samples (40) which will be tested over time. Each sample (cast into a 600 μL eppendorf tube) contains: • i. 40 μL of 200 mg/mL pullulan solution • ii. μL of AChE (250 U/L)
Each sample tube was allowed to dry, then was sealed and placed into a plastic bag and stored at ambient conditions (˜20° C.). At selected time points, the activity of the solution was tested by measuring absorbance over time, and finding the associated reaction rate (corresponding to the activity of the enzyme). To measure the activity, three (3) samples were taken (to establish triplicate repeats), and 195 μL of Tris buffer (100 mM, pH=8.0) was added to each Eppendorf tube and allowed to dissolve the […]. The resulting solution was then added to a 96 well plate, and absorbance was measured continuously at 605 nm after the addition of 5 μL of 80 mM IDA.

[4] = Long-term stability of AChE and IDA tablets stored at room temperature; type: physicochemical
Method: To test the ability of pullulan to retain IDA activity, 10 μL of 40 mM IDA and 40 μL of 120 g/L pullulan in water were mixed and casted in a polypropylene mold with wells with a size of 3 mm in diameter×3 mm in depth. The solution was air-dried overnight at 21° C. and 48% RH; tablet formation was considered not fully completed if the tablet could not be removed from the bottom of the well. […] To test IDA activity, 199 μL of Tris-HCl (100 mM, pH 8) was used to dissolve the pill and 1 μL of fresh 250 U/mL AChE was added. The solution was then transferred to a 96-well plate and the absorbance of the developing blue color was measured at A605 on a TECAN Infinite M200 Pro microtiter plate reader.
To test the ability of pullulan to retain AChE activity, 1 μL of 250 U/mL AChE and 40 μL of 120 g/L pullulan were mixed and casted into tablets. The solution was air-dried overnight at 21° C. and 48% RH; tablet formation was considered not fully completed if the tablet could not be removed from the bottom of the well; […] To test AChE activity, 195 μL of Tris-HCl (100 mM, pH 8) was used to dissolve the tablet and 5 μL of fresh 80 mM IDA was added. The solution was then transferred to a 96-well plate and the absorbance was measured at A605 on TECAN Infinite M200 Pro microtiter plate reader.

[5] = Comparison of AChE activity with different concentrations of pullulan after 2 weeks; type: physicochemical; conditions: AChE in 125 and 250 mg/mL pullulan, 2 weeks age
Method: To determine the effect the concentration of pullulan has on the maintenance of the AChE enzyme two samples of 2 weeks age were tested (125 and 250 mg/mL). […] More trials will be conducted at 1 week intervals to determine if there is a noticeable color intensity difference over time.

[6] = Testing IDA capsules and pullulan films (IDA protection); type: physicochemical
Method: 15 μL of IDA dissolved in methanol was added to a pullulan capsule (cast in an eppendorf tube lid), and sealed with a 5 mL (50 mg/mL, 3.5 cm petri dish) PVA film using a PVA glue solution. Another capsule was prepared with IDA in a powdered form. The capsules were left to determine if the PVA will serve as an oxygen barrier to protect the IDA from oxidation over a period of time
In order to determine if pullulan works to stabilize IDA when the IDA is mixed into the pullulan solution, a solution of 300 mg/mL pullulan was mixed, and 5 μL of IDA dissolved in methanol was added to each 30 μL of sample.
Five samples were cast (total volume of 35 μL) into the caps of 0.6 mL Eppendorf microcentrifuge tubes and left to dry. The activity of the IDA will be measured by: • i. checking for a pink/red color change, which indicates the IDA is hydrolysed or oxidized • ii. testing with AChE to ensure that a blue color change still results Pesticide Tests
Previously explored was the addition of IDA (solution and powder form) to two PVA capsules. 5 uL of IDA dissolved in methanol was added to one, and IDA in powder form was added to the other.
Also tested was one of the capsules with IDA solution cast into a pullulan film (in the lid of a 0.6 mL eppendorf tube). […]

[7] = ATCh stability (Ellman assay reagents); type: physicochemical; conditions: several days in the refrigerator and in a fume hood with no protection
Method: When tested in solution, with the following amounts of reagents were used: • i. 15 uL ATCh (300 uM), 1 uL AChE (10 or 250 U/L) • ii. 50 uL of 500 uM DTNB • iii. 34 uL Tris
Acetylthiocholine (ATCh) is an unstable molecule, and will hopefully be stabilized on paper. However, after several tests were performed, it was noted that after being left in the refrigerator for several days, and left in a fume hood with no protection against hydrolyzation, the ATCh was still stable when tested. The most likely reason for the continued activity of the ATCh is due to the Tris buffer it was dissolved in being evaporated, and the ATCh in a solid (or powdered) form is stable. Accordingly, it should be reliable to store the ATCh as a powder form, preferably inside of a soluble (pullulan) capsule.

Compound: CC(=O)Oc1cn(C)c2ccccc12 [N-methylindoxyl acetate]
- Km (Acetylcholinesterase): 2580 µM
- kc (Acetylcholinesterase): 320 s⁻¹

Compound: CCOC(=O)CC(SP(=S)(OC)OC)C(=O)OCC (centres unmarked) [malathion]
- Result (color change) (AChE): IDA/methanol. No color change at 5 minutes.

Compound: Luciferase
- loss of activity in buffer ([1]; same components stored in buffer solution): loses its activity in buffer solution in few hours
- activity of enzyme alone in pullulan pills ([1]; stored at room temperature): active even after four months

Compound: Nc1ncnc2c1ncn2[C@@H]1O[C@H](COP(=O)(O)OP(=O)(O)OP(=O)(O)O)[C@@H](O)[C@H]1O [ATP, Adenosine triphosphate]
- limit of detection of ATP concentration (Luciferase; at 3a above background, tricine buffer): 16 pM
- limit of detection as amount of ATP (Luciferase; in 100 uL added to the pill): 1.6 fmol

Compound: Acetylcholinesterase [AChE]
- activity after heat treatment [2]: completely inactive
- activity as compared to a fresh sample ([3]; AChE cast in 200 mg/mL pullulan, stored at ambient conditions (~20 °C), over 30 days): approximately 63%
- activity of AChE left out without pullulan ([3]; without any pullulan, left out for 24 hours): completely inactivated
- time to become completely inactive ([4]; stored in solution at room temperature): ≤ 3 days
- activity of the enzyme over two weeks [5]: not much decreased

Compound: indoxyl acetate [IDA]
- time protected from hydrolyzation/oxidation ([6]; IDA solution cast into a pullulan film): ~2 weeks
- IDA stability in PVA capsules ([6]; IDA solution or powder in PVA capsules, tested with AChE): kept stable over a period of two weeks
- complete inactivation ([4]; in solution at room temperature): completely inactive within a week
- loss of activity ([4]; in solution at room temperature, within one day): 70%

Compound: CC(=O)SCC[N+](C)(C)C [ATCh, Acetylthiocholine]
- stability of ATCh [7]: still stable
